We go through eight compounds from ChEMBL document CHEMBL1159212, “Microbial metabolites of ophiobolin A and antimicrobial evaluation of ophiobolins” (1995).

One experiment concerns Candida. Nature of the experiment: Antifungal activity against Torulopsis cremoris by agar-well diffusion assay. It counts as functional. On the technique in general: In agar diffusion tests the substance spreads into inoculated agar from a disc or well.
Another experiment deals with Aspergillus flavus. The experiment is described as follows: Antifungal activity against Aspergillus flavus by agar-well diffusion assay. The format is functional.
For another experiment, the system named is Yarrowia deformans. The experiment is described as follows: Antifungal activity against Torulopsis petrophilum by agar-well diffusion assay. It counts as functional.
Another experiment relates to Candida albicans. Nature of the experiment: Antifungal activity against Candida albicans by agar-well diffusion assay. The following applies: for MIC: Candida albicans. The format is functional.
The test system of experiment [1] is Trichophyton mentagrophytes. Nature of the experiment: Antifungal activity against Trichophyton mentagrophytes by agar-well diffusion assay. The following applies: for MIC: Trichophyton mentagrophytes. The format is functional.
In experiment [2] the test system is Mycobacterium intracellulare. Nature of the experiment: Antibacterial activity against Mycobacterium intercellulare by agar-well diffusion assay. The format is functional.
The test system of the next experiment is Escherichia coli. Nature of the experiment: Antibacterial activity against Escherichia coli by agar-well diffusion assay. The format is functional, organism-based.
The next experiment deals with Cryptococcus neoformans. Nature of the experiment: Antifungal activity against Cryptococcus neoformans by agar-well diffusion assay. The format is functional.
The subject of a further experiment is Staphylococcus aureus. Nature of the experiment: Antibacterial activity against Staphylococcus aureus by agar-well diffusion assay. The format is functional.

≈ marks a conversion by molar mass, not a printed value. Calls of active or inactive are those of the source.

Broadly, the MIC is the smallest concentration in the dilution series that meets the test's criterion for growth inhibition. Consider `C[C@@H]1[C@H](O)[C@@H](C)/C=C/C=C/C=C/C=C/C=C/C=C/C=C/[C@H](O[C@@H]2O[C@H](C)[C@@H](O)[C@H](N)[C@@H]2O)C[C@@H]2O[C@](O)(C[C@@H](O)C[C@@H](O)[C@H](O)CC[C@@H](O)C[C@@H](O)CC(=O)O[C@H]1C)C[C@H](O)[C@H]2C(=O)O` [AMPHOTERICIN B], for which the minimum inhibitory concentration (MIC) with Candida was found to be 3.12 mg/L (≈ 3.38 µM); in the experiment with Aspergillus flavus, 3.12 mg/L (≈ 3.38 µM); in the experiment on Yarrowia deformans it was 0.2 mg/L (≈ 0.216 µM); in the experiment on Candida albicans it was 0.78 mg/L (≈ 0.844 µM); in experiment [1] it was 0.78 mg/L (≈ 0.844 µM).
Take `CC(C)=C[C@H]1C[C@H](C)[C@]2(CC[C@]3(C)C[C@@H]4C(C)=CC(=O)[C@H]4/C(CO)=C\C[C@H]32)O1` [OPHIOBOLIN I]: the “inhibition zone (IZ)” value in experiment [2] was found to be 3 mm; with Cryptococcus neoformans it was 1 mm; in experiment [1], 7 mm. For the same compound, the outcome in the experiment on Escherichia coli, in the experiment on Candida albicans and in the experiment with Staphylococcus aureus was inactive.
Take `CC(C)=CCC[C@H](C)[C@@]1(O)CC[C@]2(C)C[C@H]3[C@H]4/C(=C\C[C@H]21)C(=O)O[C@H]4C[C@@]3(C)O` [OPHIOBOLIN B LACTONE]: the result (in experiment [2]; in the experiment on Escherichia coli; with Candida albicans; in the experiment on Staphylococcus aureus) was inactive. The “inhibition zone (IZ)” value in the experiment on Cryptococcus neoformans is 1 mm; in experiment [1] it was 7 mm.
`CC(C)=CCC[C@H](C)[C@@]1(O)CC[C@]2(C)C[C@H]3[C@H](C(=O)C[C@@]3(C)O)/C(C=O)=C\C[C@H]21` [OPHIOBOLIN B]: the result (in experiment [2]; in the experiment on Escherichia coli; in the experiment on Candida albicans) was inactive. Also, the “inhibition zone (IZ)” value was “<=1 mm” in the experiment on Cryptococcus neoformans, 7 mm in [1] and 3 mm in the experiment with Staphylococcus aureus.
For the compound `CC(C)=C[C@H]1C[C@H](C)[C@]2(CC[C@]3(C)C[C@H]4[C@H](C(=O)C[C@@]4(C)O)/C(C=O)=C\C[C@H]32)O1` [OPHIOBOLIN A], the MIC in the experiment with Candida was 0.2 mg/L (≈ 0.499 µM); against Aspergillus flavus it was 25 mg/L (≈ 62.4 µM); against Yarrowia deformans, 1.56 mg/L (≈ 3.89 µM); against Candida albicans it was 125 mg/L (≈ 312 µM); in experiment [1], 12.5 mg/L (≈ 31.2 µM). Moreover, the “inhibition zone (IZ)” value was 3 mm in [2]; 3 mm in the experiment with Cryptococcus neoformans; 7 mm in the experiment on Candida albicans; greater than 12 mm in experiment [1]; 7 mm with Staphylococcus aureus. In the experiment with Escherichia coli, the result was inactive.
As for `CC(C)=C[C@H]1C[C@H](C)[C@]2(CC[C@]3(C)C[C@H]4[C@@H]5/C(=C\C[C@H]32)C(=O)OC5(O)C[C@@]4(C)O)O1` (stereo partly specified), the outcome (in [2]; in the experiment on Escherichia coli; in the experiment on Candida albicans) was inactive. In addition, the figures for the “inhibition zone (IZ)” value (in the experiment with Cryptococcus neoformans; in experiment [1]; in the experiment with Staphylococcus aureus) were “<=1 mm”, “<=7 mm” and greater than 12 mm, respectively.
`CC(C)=C[C@H]1C[C@H](C)[C@]2(CC[C@]3(C)C[C@H]4[C@H]5/C(=C\C[C@H]32)C(=O)OC5(O)C[C@@]4(C)O)O1` (stereo partly specified) [OPHIOBOLIN L]: the “inhibition zone (IZ)” value in experiment [2] is 3 mm; in the experiment with Cryptococcus neoformans, 3 mm; with Candida albicans, 1 mm. The “inhibition zone (IZ)” value with Escherichia coli and with Staphylococcus aureus was “inactive” each time.
Regarding `CC(C)=C[C@H]1C[C@H](C)[C@]2(CC[C@]3(C)C[C@H]4[C@H]5/C(=C\C[C@H]32)C(=O)O[C@H]5C[C@@]4(C)O)O1` [OPHIOBOLIN A LACTONE], the “inhibition zone (IZ)” value in experiment [2] stood at 3 mm; with Cryptococcus neoformans, 1 mm; in experiment [1] it was 7 mm. Besides, the result with Escherichia coli, in the experiment with Candida albicans and in the experiment on Staphylococcus aureus was inactive.
